Results: US8778401B2, “Mesoporous material excipients for poorly aqueous soluble ingredients” (Agency for Science, Technology and Research, priority 2008, dated 2014)
One block for each compound: values may come before it.

Key:
Format in all cases: physicochemical
[1] = Dissolution test of ibuprofen formulations (USP dissolution tester, online UV); settings: 900 mL 0.1N HCl at 37° C., 100 rpm
Description: The suspension was spray-dried in a Buchi Spray Drier B290. The inlet temperature was set to 81° C. and the outlet temperature was ˜50° C. The pump speed was set to “20”. […] Stirring speed is 100 rpm. Sample was taken by auto sampling system at interval of 5 min. UV reading was taken at wavelength 222 nm.
The dissolution profile was measured using VK7010 (Varian Co) USP dissolution tester with flow cell online UV-vis analysis system. Stirring rate is 100 rpm and vessel temperature is set at 37° C.
The dissolution is performed using the same method as in Example 1.

[2] = Storage stability of the amorphous form at 40° C./75% RH (XRD); settings: same conditions (40° C./75% RH) for just one week
Description: The storage stability was tested in severe storage condition of 75% relative humidity and temperature of 40° C., denoted as 40° C./75% RH.
A broad peak at 2-θ of 15-30° is typical in diffraction patterns of X-ray amorphous silica.
The amorphous state of these drugs formed by spray drying with mesoporous materials is stable after being subject to stress conditions of 40° C./75% RH for at least six months.

[3] = Dissolution of spray-dried indomethacin with SBA-15 in pH 6.8 phosphate buffer; settings: 900 mL of pH 6.8 phosphate buffer
Description: FIG. 15 illustrates dissolution profiles of spray-dried indomethacin with SBA-15 in powder form and tablet form, and a comparison with raw indomethacin crystal. (900 mL of pH 6.8 phosphate buffer, 50 mg spray-dried indomethacin with SBA-15 in powder form or tablet with 800 mg cornstarch at 1 ton press, raw crystal form is 25 mg).

Dissolution test data 15 min ([1]; 25 mg ibuprofen or equivalent, 15 min): 17.5% | Dissolution test data 30 min ([1]; 25 mg ibuprofen or equivalent, 30 min): 25.6% | Dissolution test data 45 min ([1]; 25 mg ibuprofen or equivalent, 45 min): 35.6% | dissolved in 15 min ([1]; powder form, 15 min): 17.5% | dissolved within 15 min, tablet form ([1]; tablet with 0.8 g cornstarch, 1 ton press, 15 min): 16.4%
Compound: CC(C)Cc1ccc(C(C)C(=O)O)cc1 (stereo not shown) [pure ibuprofen crystal, ibuprofen]

stability of amorphous form after storage [2]: re-crystallized
Compound: COc1ccc2c(c1)c(CC(=O)O)c(C)n2C(=O)c1ccc(Cl)cc1 [indomethacin]

dissolution within 15 min [3]: 25%
Compound: COc1ccc2c(c1)c(CC(=O)O)c(C)n2C(=O)c1ccc(Cl)cc1 [commercial indomethacin, indomethacin]
